Data set [1] in a line: Solubility of didemethyl simmondsin in absolute ethanol. The class given is physicochemical. The method, then:
DWE, 1 gram, was stirred 30 min with 20 ml of either acetone, acetonitrile,chloroform, methanol, water, ethanol, isopropanol, 95/5 isopropanol/water or 5/95 methanol/chloroform. Supernatant was filtered, dried, weighed, and analyzed for simmondsin and analogues. […] Both the amount of simmondsins extracted and their enrichment in the extract are important in choosing a selective solvent. Therefore, selectivity was calculated as enrichment times concentration for each component, simmondsin, simmondsin ferulate, demethylsimmondsin and didemethyl simmondsin as well as the total for all four components and plotted against solvent composition and solvent to solute ratio. For simmondsin, selectivity or SIMM-- X=[(concentration of simmondsin in extract)/(concentration of simmondsin in DWE)][weight of simmondsin in extract/weight of simmondsin in DWE].

The conditions of data set [2]: statement without test; cited from earlier work.
The next data set relates to mice. The note with it: Cokeleare et al. 1995; cited from earlier work.
Another data set concerns rats. The conditions noted are these: Cokeleare et al. 1995; cited from earlier work.
The test system of another data set is chickens. The conditions noted are these: Cokeleare et al. 1995; cited from earlier work.

Consider two molecules from patent publication US6007823A, “Simmondsin concentrate from jojoba” (The United States of America as represented by the …, priority 1998, dated 1999).

Take `N#CC=C1C(OC2OC(CO)C(O)C(O)C2O)CC(O)C(O)C1O` (centres unmarked) [didemethyl simmondsin]: in data set [1], the “Solubility in absolute ethanol” value is “very limited”. Further, in data set [2], the Bioactivity entry was “non-bioactive”.
Regarding `CO[C@H]1[C@@H](OC)C[C@@H](O[C@@H]2O[C@H](CO)[C@@H](O)[C@H](O)[C@H]2O)/C(=C\C#N)[C@@H]1O` [simmondsin], the Food intake result with mice, with rats and in the data set on chickens was “reduces food intake” throughout.
